Laboratory results as given in the NIST ThermoML archive (doi:10.1016/j.tca.2016.06.015).

Test: molar heat capacity at constant pressure
Settings: Liquid, Flow calorimetry

CCCCCCCCCC [decane]
4000 kPa
Settings	molar heat capacity at constant pressure [J/K/mol]
305.7 K	293.1
316.2 K	305.91
326.5 K	304.48
335.3 K	315.87
344 K	324.4
354.1 K	322.98
366.8 K	327.25
377.6 K	340.05
389.8 K	335.78
401.5 K	344.32
423.6 K	361.4
432.6 K	367.09
443.4 K	372.78
453.9 K	377.05
463.9 K	389.85
475.4 K	396.97
486.6 K	419.73
496 K	414.04
504.1 K	432.54
516.7 K	415.46
528.9 K	424
539.4 K	433.96
551.9 K	453.88
564.4 K	453.88
574.2 K	470.95
584.4 K	488.03
595.2 K	507.95
603.1 K	513.64
608.6 K	486.6
614.1 K	497.99

O [water]
3000 kPa
Settings	molar heat capacity at constant pressure [J/K/mol]
305.9 K	77.29
315.6 K	72.96
325.4 K	73.14
335.8 K	76.56
345.8 K	74.58
354 K	78.01
366.2 K	74.22
381.2 K	77.65
394.4 K	74.58
407.3 K	76.2
419.9 K	76.38
433.9 K	76.02
